Assay results reported in article PMC5778160, “Functional genomics analysis reveals the biosynthesis pathways of important cellular components (alginate and fucoidan) of Saccharina” (Current Genetics, 2017).
Blank lines part the entries; values can stand above or below the molecule they belong to.

Columns and labels:
EsiGMD3 = test system: T1, EsiGMD3; test: enzyme kinetics (GDP-mannose dehydrogenase activity); format: biochemical, Ectocarpus siliculosus; settings: read-out: NAD / k m; co-substrate GDP-mannose; optimum pH 8.75, 30–37 °C; unit as in table header, probably a misprint for μM; heading: NAD / k m
T1 construct: gene GMD3; synthesized gene, pET32a, E. coli BL21(DE3), His-resin purified
From the text: enzyme kinetics (GDP-mannose dehydrogenase activity) on EsiGMD3

EsiGMD2 = test system: T2, EsiGMD2; test: as above; format: biochemical, Ectocarpus siliculosus; settings: read-out: NAD / k m; co-substrate GDP-mannose; optimum pH 8.75–9, 30–37 °C; unit as in table header, probably a misprint for μM; heading: NAD / k m
T2 construct: gene GMD2; synthesized gene, pET32a, E. coli BL21(DE3), His-resin purified
From the text: enzyme kinetics (GDP-mannose dehydrogenase activity) on EsiGMD2

[1] = substrate: O=P(O)(O)O[C@H]1O[C@H](CO)[C@@H](O)[C@H](O)[C@@H]1O; test: enzyme kinetics, double reciprocal plot (phosphomannomutase activity); format: biochemical, Saccharina japonica; settings: optimum pH 7.4, 25 °C
[2] = substrate: O=P(O)(O)O[C@H]1O[C@H](CO)[C@@H](O)[C@H](O)[C@H]1O; test: enzyme kinetics, double reciprocal plot (phosphoglucomutase activity); format: biochemical, Saccharina japonica; settings: optimum pH 7.0, 30 °C

Km (EsiGMD3): 43.5 µM
Km (EsiGMD2): 79.6 µM
Molecule: NC(=O)c1ccc[n+]([C@@H]2O[C@H](COP(=O)(O)OP(=O)(O)OC[C@H]3O[C@@H](n4cnc5c(N)ncnc54)[C@H](O)[C@@H]3O)[C@@H](O)[C@H]2O)c1 [NAD]

B1: SjaPMM (Saccharina japonica) (protein)
chain: MSVTKNPRIIALFDVDGTLTAARKEVLPDMVEFIKTLRERITIGVVGGSDLPKQKEQLGESVMEDYDYSFSQNGLVAYKAGELIGQQTISKHVGEENLKKIINWVLKYMSGIDIPVKRGTFIEFRTGMLNISPVGRNCSQEERDAFEQYDNVHKIRETMVAAMREEFADLNLTFSIGGQISFDLFPTGWDKTFCLQFLGEGTAEYDEIHFFGDKTFKGGNDNEIFESERTIGHTVTSPADTIQQCKELFFKD
notes: synthesized gene, pET32a, E. coli BL21(DE3), His-resin purified
Km [1]: 699.41 µM
Km [2]: 41.04 µM
